In general, IC50 refers to the concentration needed to halve the response being measured.

Structures are written as SMILES. Read-outs that look alike come from different tables or passages of the source.

These results are taken from patent publication US10660877B2 (BRISTOL-MYERS SQUIBB COMPANY, priority 2016, dated 2020).

For one experiment, the target named is human TLR9 (Homo sapiens (Human), UniProt Q9NR96). The experiment in a line: TLR9 inhibition reporter assay (HEK-Blue cells, SEAP reporter, ODN2006 stimulation). (In a reporter assay the amount or activity of a reporter protein is the signal.);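 note: compounds tested over 0.05 nM to 50 µM, 22 h incubation, inhibition taken as SEAP signal drop from agonist plus DMSO wells toward a known inhibitor control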
Another experiment concerns the target human TLR7 (Homo sapiens (Human), UniProt Q9NYK1). The experiment in a line: TLR7 inhibition reporter assay (HEK-Blue cells, SEAP reporter, gardiquimod stimulation). The class given is cell-based. As to conditions: HEK-Blue cells overexpressing human TLR7, gardiquimod 7.5 μM.
The next experiment has as its target human TLR8 (Homo sapiens (Human), UniProt Q9NR97). The experiment in a line: TLR8 inhibition reporter assay (HEK-Blue cells, SEAP reporter, R848 stimulation).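 Note: compounds tested from 0.05 nM to 50 µM, 22 h at 37 °C, SEAP measured with HEK-Blue Detection, inhibition relative to agonist plus DMSO versus a known inhibitor.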
Setting [1] is: read-out: TLR9 IC50, HEK-Blue cells overexpressing human TLR9, ODN2006 5 nM.
The mark [2] stands for this setting: read-out: TLR8 IC50, HEK-Blue cells overexpressing human TLR8, R848 15.9 μM.
[3] abbreviates: TLR9 IC50, HEK-Blue cells overexpressing human TLR9, ODN2006 5 nM.
Where [4] appears, read: TLR8 IC50, HEK-Blue cells overexpressing human TLR8, R848 15.9 μM.

human TLR8, sequence (Q9NR97 27-1041): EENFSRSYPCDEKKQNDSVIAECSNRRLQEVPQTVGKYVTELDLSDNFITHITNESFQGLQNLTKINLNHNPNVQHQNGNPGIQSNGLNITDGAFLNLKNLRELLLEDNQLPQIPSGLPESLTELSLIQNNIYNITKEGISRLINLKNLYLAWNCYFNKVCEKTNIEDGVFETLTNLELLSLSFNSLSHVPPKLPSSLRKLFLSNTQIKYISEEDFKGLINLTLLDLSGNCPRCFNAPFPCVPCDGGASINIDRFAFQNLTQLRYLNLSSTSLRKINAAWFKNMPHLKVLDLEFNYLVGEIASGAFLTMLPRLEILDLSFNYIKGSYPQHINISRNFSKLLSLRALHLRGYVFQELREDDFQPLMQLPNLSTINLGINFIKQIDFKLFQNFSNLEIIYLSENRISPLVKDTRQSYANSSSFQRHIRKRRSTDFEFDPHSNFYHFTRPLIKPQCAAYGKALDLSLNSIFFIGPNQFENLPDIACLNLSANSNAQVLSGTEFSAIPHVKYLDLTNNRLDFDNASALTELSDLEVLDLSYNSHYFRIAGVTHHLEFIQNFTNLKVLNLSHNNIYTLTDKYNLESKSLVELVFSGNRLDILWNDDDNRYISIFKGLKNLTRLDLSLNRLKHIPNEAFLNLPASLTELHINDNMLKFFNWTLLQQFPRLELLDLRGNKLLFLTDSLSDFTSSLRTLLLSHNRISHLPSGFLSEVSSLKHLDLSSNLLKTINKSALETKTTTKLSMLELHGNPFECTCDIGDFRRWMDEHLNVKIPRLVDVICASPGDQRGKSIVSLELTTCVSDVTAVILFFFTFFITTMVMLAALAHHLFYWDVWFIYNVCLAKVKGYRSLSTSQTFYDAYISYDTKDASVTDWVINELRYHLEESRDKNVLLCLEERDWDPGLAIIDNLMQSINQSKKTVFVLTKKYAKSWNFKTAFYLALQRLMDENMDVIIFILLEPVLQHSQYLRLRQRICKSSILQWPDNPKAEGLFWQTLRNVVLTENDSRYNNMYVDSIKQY
human TLR7, sequence (Q9NYK1 27-1049): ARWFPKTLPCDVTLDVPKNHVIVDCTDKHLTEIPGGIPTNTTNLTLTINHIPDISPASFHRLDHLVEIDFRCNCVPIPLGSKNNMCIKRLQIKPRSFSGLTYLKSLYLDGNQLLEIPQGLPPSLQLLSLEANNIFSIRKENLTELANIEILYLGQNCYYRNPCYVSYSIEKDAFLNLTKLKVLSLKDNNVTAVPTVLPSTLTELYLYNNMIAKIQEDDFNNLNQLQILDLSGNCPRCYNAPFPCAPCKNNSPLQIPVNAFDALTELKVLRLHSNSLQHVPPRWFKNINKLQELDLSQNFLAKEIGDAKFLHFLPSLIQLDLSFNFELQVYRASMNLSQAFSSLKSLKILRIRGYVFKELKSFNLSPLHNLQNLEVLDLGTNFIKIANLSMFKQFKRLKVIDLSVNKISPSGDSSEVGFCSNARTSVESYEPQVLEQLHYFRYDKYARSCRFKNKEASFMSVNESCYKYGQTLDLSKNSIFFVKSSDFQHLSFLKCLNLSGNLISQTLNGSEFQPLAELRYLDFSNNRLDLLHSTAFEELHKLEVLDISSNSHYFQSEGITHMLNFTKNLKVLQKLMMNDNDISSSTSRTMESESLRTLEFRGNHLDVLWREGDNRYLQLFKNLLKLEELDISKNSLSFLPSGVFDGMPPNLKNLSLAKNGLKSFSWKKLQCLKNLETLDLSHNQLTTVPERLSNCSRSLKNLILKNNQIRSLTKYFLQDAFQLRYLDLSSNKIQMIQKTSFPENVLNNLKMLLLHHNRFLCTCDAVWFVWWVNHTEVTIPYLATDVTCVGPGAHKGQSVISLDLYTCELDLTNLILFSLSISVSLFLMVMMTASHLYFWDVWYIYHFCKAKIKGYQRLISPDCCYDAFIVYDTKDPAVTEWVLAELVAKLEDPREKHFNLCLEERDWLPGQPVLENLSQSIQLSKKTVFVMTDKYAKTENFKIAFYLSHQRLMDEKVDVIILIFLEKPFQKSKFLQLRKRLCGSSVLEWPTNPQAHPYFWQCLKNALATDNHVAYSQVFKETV
human TLR9, sequence (Q9NR96 26-1032): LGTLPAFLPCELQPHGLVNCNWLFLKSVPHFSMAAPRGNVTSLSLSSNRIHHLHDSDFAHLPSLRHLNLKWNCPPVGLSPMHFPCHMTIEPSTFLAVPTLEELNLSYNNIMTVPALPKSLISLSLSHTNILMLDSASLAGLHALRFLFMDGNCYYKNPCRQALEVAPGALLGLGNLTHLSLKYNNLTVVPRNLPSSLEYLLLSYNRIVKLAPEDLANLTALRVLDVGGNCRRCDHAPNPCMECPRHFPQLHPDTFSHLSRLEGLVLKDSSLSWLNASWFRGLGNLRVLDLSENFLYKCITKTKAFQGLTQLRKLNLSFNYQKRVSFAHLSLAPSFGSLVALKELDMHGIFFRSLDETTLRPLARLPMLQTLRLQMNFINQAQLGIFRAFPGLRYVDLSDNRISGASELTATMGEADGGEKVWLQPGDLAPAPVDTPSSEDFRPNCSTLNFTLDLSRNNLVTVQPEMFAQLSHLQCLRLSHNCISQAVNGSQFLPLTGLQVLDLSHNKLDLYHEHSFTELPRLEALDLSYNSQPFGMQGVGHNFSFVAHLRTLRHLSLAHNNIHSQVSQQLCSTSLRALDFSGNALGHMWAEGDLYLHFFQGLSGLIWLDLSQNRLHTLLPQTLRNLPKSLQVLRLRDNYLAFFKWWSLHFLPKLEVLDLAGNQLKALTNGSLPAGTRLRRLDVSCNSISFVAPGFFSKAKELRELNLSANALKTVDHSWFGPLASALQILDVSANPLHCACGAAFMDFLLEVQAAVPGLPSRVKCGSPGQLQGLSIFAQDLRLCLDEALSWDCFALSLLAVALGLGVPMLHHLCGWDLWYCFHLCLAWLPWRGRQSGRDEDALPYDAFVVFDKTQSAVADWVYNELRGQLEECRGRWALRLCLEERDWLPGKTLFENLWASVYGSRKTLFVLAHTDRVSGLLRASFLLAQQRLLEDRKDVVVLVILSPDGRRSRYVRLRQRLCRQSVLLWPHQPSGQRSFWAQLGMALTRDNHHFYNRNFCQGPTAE

Regarding `Cc1cc(-c2[nH]c3ccc(C4CCN(C(=O)Cc5csc(C)n5)CC4)cc3c2C(C)C)cc(C)n1`, the results for the IC50 on human TLR9 (setting [1]), against human TLR7 and on human TLR8 (setting [2]) were 28800 nM, 16.4 nM and 124 nM, respectively.
Take `Cc1cc(-c2[nH]c3ccc(C4CCN(C(=O)C5CC(=O)N(C)C5)CC4)cc3c2C(C)C)cc(C)n1` (single isomer, unassigned) [Example 101, 4-(4-(2-(2,6-dimethylpyridin-4-yl)-3-isopropyl-1H-indol-5-yl)piperidine-1-carbonyl)-1-methylpyrrolidin-2-one]: the figures for the IC50 against human TLR9 (setting [3]), against human TLR7 and on human TLR8 (setting [4]) were 36900 nM, 9.3 nM and 52.4 nM, respectively.
Turning to `Cc1cc(-c2[nH]c3ccc(C4CCN(C(=O)C5CCNC5)CC4)cc3c2C(C)C)cc(C)n1` (single isomer, unassigned) [Example 181, (4-(2-(2,6-dimethylpyridin-4-yl)-3-isopropyl-1H-indol-5-yl)piperidin-1-yl)(pyrrolidin-3-yl) methanone], the IC50 was 537 nM at human TLR9 (setting [3]), 2.6 nM on human TLR7 and 21.5 nM at human TLR8 (setting [4]).
As for `Cc1cc(-c2[nH]c3ccc(C4CCN(C(=O)C5CCNC5)CC4)cc3c2C(C)C)cc(C)n1` (single isomer, unassigned) [Example 182, (4-(2-(2,6-dimethylpyridin-4-yl)-3-isopropyl-1H-indol-5-yl)piperidin-1-yl)(pyrrolidin-3-yl) methanone], the IC50 was 151 nM on human TLR9 (setting [3]), 1.3 nM on human TLR7 and 12 nM on human TLR8 (setting [4]).
On to `Cc1cc(-c2[nH]c3ccc(C4CCNCC4O)cc3c2C(C)C)cc(C)n1` (single isomer, unassigned) [Example 488A, 4-(2-(2,6-dimethylpyridin-4-yl)-3-isopropyl-1H-indol-5-yl)piperidin-3-ol], for which the IC50 on human TLR9 (setting [3]) turned out to be 240 nM; on human TLR7, 2.7 nM; on human TLR8 (setting [4]) it was 21 nM.
Regarding `Cc1cc(-c2[nH]c3ccc(C4CCNCC4O)cc3c2C(C)C)cc(C)n1` (single isomer, unassigned) [Example 488B, 4-(2-(2,6-dimethylpyridin-4-yl)-3-isopropyl-1H-indol-5-yl)piperidin-3-ol], the IC50 against human TLR9 (setting [3]) worked out at 308 nM; on human TLR7 it was 2.4 nM; on human TLR8 (setting [4]), 33.1 nM.
As for `Cc1cc(-c2[nH]c3ccc(C4CCNCC4(F)F)cc3c2C(C)C)cc(C)n1` (single isomer, unassigned) [Example 489A, 5-(3,3-difluoropiperidin-4-yl)-2-(2,6-dimethylpyridin-4-yl)-3-isopropyl-1H-indole], the 50% inhibitory concentration (IC50) against human TLR9 (setting [3]) is 849 nM; at human TLR7, 1.1 nM; against human TLR8 (setting [4]), 13.9 nM.
Taken in the same sequence, the figures for `Cc1cc(-c2[nH]c3ccc(C4CCNCC4(F)F)cc3c2C(C)C)cc(C)n1` (single isomer, unassigned) [Example 489B, 5-(3,3-difluoropiperidin-4-yl)-2-(2,6-dimethylpyridin-4-yl)-3-isopropyl-1H-indole] were 1010 nM, 1.3 nM and 20 nM.
As to `CCc1c(-c2ccnc(N)c2)[nH]c2ccc([C@@H]3CCNC[C@@H]3F)cc12` [491-A], the IC50 at human TLR9 (setting [1]) stood at 354 nM; against human TLR7 it was 156 nM; at human TLR8 (setting [2]), 110 nM.
As to `CCc1c(-c2ccnc(N)c2)[nH]c2ccc([C@@H]3CCNC[C@H]3F)cc12` [491-B], the IC50 at human TLR9 (setting [1]) turned out to be 324 nM; against human TLR7, 526 nM; on human TLR8 (setting [2]), 34.9 nM.
With `CCc1c(-c2cc(C)nc(C)c2)[nH]c2ccc(C3CCNCC3)cc12` [Example 2, 2-(2,6-dimethylpyridin-4-yl)-3-ethyl-5-(piperidin-4-yl)-1H-indole], the results for the IC50 on human TLR9 (setting [1]), at human TLR7 and at human TLR8 (setting [2]) were 248 nM, 4.7 nM and 11.2 nM, respectively.
As to `Cc1cc(-c2[nH]c3ccc(C4CCNCC4)cc3c2C(C)C)cc(F)n1` [Example 3, 2-(2-fluoro-6-methylpyridin-4-yl)-3-isopropyl-5-(piperidin-4-yl)-1H-indole], the results for the IC50 at human TLR9 (setting [1]), against human TLR7 and at human TLR8 (setting [2]) were 1890 nM, 1.8 nM and 3.8 nM, respectively.
`Cc1cc(-c2[nH]c3ccc(C4CCNCC4)cc3c2C(C)C)ccn1` [Example 5, 3-isopropyl-2-(2-methylpyridin-4-yl)-5-(piperidin-4-yl)-1H-indole]: the IC50 on human TLR9 (setting [1]) is 946 nM; against human TLR7, 6.1 nM; on human TLR8 (setting [2]), 3.9 nM.
As to `CC(C)c1c(-c2ccncc2F)[nH]c2ccc(C3CCNCC3)cc12` [Example 7, 2-(3-fluoropyridin-4-yl)-3-isopropyl-5-(piperidin-4-yl)-1H-indole], the IC50 at human TLR9 (setting [1]) is 3540 nM; against human TLR7, 590 nM; on human TLR8 (setting [2]), 195 nM.
Take `CC(C)c1c(-c2ccnc(N)c2)[nH]c2ccc(C3CCNCC3)cc12` [Example 8, 4-(3-isopropyl-5-(piperidin-4-yl)-1H-indol-2-yl)pyridin-2-amine]: the IC50 on human TLR9 (setting [1]) came to 160 nM; against human TLR7, 34.4 nM; on human TLR8 (setting [2]) it was 28.8 nM.
On to `Cc1cnc(N)cc1-c1[nH]c2ccc(C3CCNCC3)cc2c1C(C)C` [Example 9, 4-(3-isopropyl-5-(piperidin-4-yl)-1H-indol-2-yl)-5-methylpyridin-2-amine], for which the IC50 at human TLR9 (setting [1]) worked out at 562 nM; at human TLR7, 75.1 nM; on human TLR8 (setting [2]), 22.1 nM.
Turning to `Cc1cc(-c2[nH]c3ccc(C4CCNCC4)cc3c2C(C)C)c(N)cn1` [Example 10, 4-(3-isopropyl-5-(piperidin-4-yl)-1H-indol-2-yl)-6-methylpyridin-3-amine], the 50% inhibitory concentration (IC50) on human TLR9 (setting [1]) turned out to be 354 nM; against human TLR7, 5.1 nM; on human TLR8 (setting [2]) it was 6.3 nM.
Turning to `Cc1c(-c2[nH]c3ccc(C4CCNCC4)cc3c2C(C)C)ccnc1N` [Example 11, 4-(3-isopropyl-5-(piperidin-4-yl)-1H-indol-2-yl)-3-methylpyridin-2-amine], the IC50 stood at 309 nM on human TLR9 (setting [3]), 358 nM at human TLR7 and 90.6 nM against human TLR8 (setting [4]).
Regarding `Cc1cc(-c2[nH]c3ccc(C4CCN(CC(=O)N(C)C5CCOCC5)CC4)cc3c2C(C)C)cc(C)n1` [Example 287, 2-(4-(2-(2,6-dimethylpyridin-4-yl)-3-isopropyl-1H-indol-5-yl)piperidin-1-yl)-N-methyl-N-(tetrahydro-2H-pyran-4-yl)acetamide], the values for the IC50 at human TLR9 (setting [3]) and at human TLR8 (setting [4]) were 328 nM and 22 nM, respectively.
With `Cc1cc(-c2[nH]c3ccc(C4CCN(C(=O)CN5CCC(C)CC5)CC4)cc3c2C(C)C)cc(C)n1` [Example 376, 1-(4-(2-(2,6-dimethylpyridin-4-yl)-3-isopropyl-1H-indol-5-yl)piperidin-1-yl)-2-(4-methylpiperidin-1-yl)ethan-1-one], the IC50 at human TLR9 (setting [1]) was found to be 628 nM; at human TLR8 (setting [2]), 20.9 nM.
Take `COC(=O)c1c(-c2cc(C)nc(C)c2)[nH]c2ccc(C3CCNCC3)cc12` [Example 495, methyl 2-(2,6-dimethylpyridin-4-yl)-5-(piperidin-4-yl)-1H-indole-3-carboxylate]: the IC50 at human TLR9 (setting [1]) was 144 nM; on human TLR8 (setting [2]) it was 12500 nM.
Regarding `Cc1cc(-c2[nH]c3ccc(C4CCN(C(=O)C5CC(=O)N(C)C5)CC4)cc3c2C(C)C)ccn1` (centres unmarked) [Example 618, 4-(4-(3-isopropyl-2-(2-methylpyridin-4-yl)-1H-indol-5-yl)piperidine-1-carbonyl)-1-methylpyrrolidin-2-one], the IC50 at human TLR9 (setting [1]) was above 50000 nM; at human TLR8 (setting [2]) it was 107 nM.
